Numbered stars: 1 amine (or outer) side, 2 acyl side, 3 side chain; on linkers, the order of the positions; unused ones are H or OH. Bridge positions count the residues as written; N and C are the ends. Square brackets hold non-standard residues; d marks the D form. Peptide text beside a SMILES is read from it. * marks the point of attachment. NMeAbu(3,3-F2-piperidino) = CN[C@@H](CCN1CCCC(F)(F)C1)C(=O)O; hPhe(3-Cl-4-CF3) = N[C@@H](CCc1ccc(C(F)(F)F)c(Cl)c1)C(=O)O; hPhe(3-F,4-CF3) = N[C@@H](CCc1ccc(C(F)(F)F)c(F)c1)C(=O)O; hPhe(4-CF3) = N[C@@H](CCc1ccc(C(F)(F)F)cc1)C(=O)O; Pro(cis-4-Ph) = O=C(O)[C@@H]1C[C@H](c2ccccc2)CN1; Phe(2-OCF3) = N[C@@H](Cc1ccccc1OC(F)(F)F)C(=O)O; NMePhe(4-Cl) = CN[C@@H](Cc1ccc(Cl)cc1)C(=O)O; NMePhe(4-Me) = CN[C@@H](Cc1ccc(C)cc1)C(=O)O; NMeGly(cPent) = CN[C@H](C(=O)O)C1CCCC1; Phe(2-OMe) = COc1ccccc1C[C@H](N)C(=O)O; Phe(3-I) = N[C@@H](Cc1cccc(I)c1)C(=O)O; X26 = CC(C)=CC[C@H](N[*:1])C(=O)[*:2]; NMeCha = CN[C@@H](CC1CCCCC1)C(=O)O; NMeChg = CN[C@H](C(=O)O)C1CCCCC1; NMeF = CN[C@@H](Cc1ccccc1)C(=O)O; NMeI = CC[C@H](C)[C@H](NC)C(=O)O; NMeT = CN[C@H](C(=O)O)[C@@H](C)O; NMeD = CN[C@@H](CC(=O)O)C(=O)O; NMeL = CN[C@@H](CC(C)C)C(=O)O; NMeV = CN[C@H](C(=O)O)C(C)C; d(β3hA) = C[C@@H](N)CC(=O)O; Pip = O=C(O)[C@@H]1CCCCN1; NMeA = CN[C@@H](C)C(=O)O; NMeAib = CNC(C)(C)C(=O)O; Piperidide = C1CCN(*)CC1; dNMeA = CN[C@H](C)C(=O)O; Ac5c = NC1(C(=O)O)CCCC1; Aze = O=C(O)[C@@H]1CCN1; Ac3c = NC1(C(=O)O)CC1; Sar = CNCC(=O)O

This assay concerns Human pancreatic cancer cell line AsPC-1 (G12D mutation Kras). The assay can be described thus: AsPC-1 cell growth inhibition (AsPC-1 CGI). Type of assay: cell-based. As to conditions: read-out: AsPC-1 cell growth inhibition, 50% growth inhibitory concentration (IC50 value); 96 hours, CellTiter-Glo, values classified in ranges. A general note: Cellular ATP, detected with luciferase, serves as a proxy for viable cell number.
Protocol: Test compounds were serially dilated with dimethyl sulfoxide, and 200 nL was then dispensed to a U-bottom 96-well plate using Labcyte Echo. […] The cell suspension was dispensed to a. plate containing a test compound at 100 μL per well and incubated at 37° C. in a 5% carbon dioxide gas incubator. 96 hours later, 80 μL of CellTiter-Glo (Promega) was added to each well and fluorescence was measured.
With `CC[C@H](C)[C@@H]1NC(=O)[C@H](CC(C)C)N(C)C(=O)C[C@@H](C(=O)N2CCCCC2)N(C)C(=O)[C@H](C2CCCCC2)N(C)C(=O)C2(CCCC2)NC(=O)[C@@H]2C[C@H](c3ccccc3)CN2C(=O)[C@H](CCc2ccc(C(F)(F)F)c(Cl)c2)NC(=O)CN(C)C(=O)[C@H](CC2CCCCC2)N(C)C(=O)[C@@H]2CCCN2C(=O)CN(C)C1=O` [Compound 1096] ([NMeL]I[Sar]P[NMeCha][Sar][hPhe(3-Cl-4-CF3)][Pro(cis-4-Ph)][Ac5c][NMeChg][NMeD]-Piperidide; lactam N-11), the IC50 was greater than 500 nM.

As for `CC[C@H](C)[C@@H]1NC(=O)[C@H](CC(C)C)N(C)C(=O)C[C@@H](C(=O)N2CCCCC2)N(C)C(=O)[C@H](C2CCCC2)N(C)C(=O)C2(CCCC2)NC(=O)[C@@H]2CCCN2C(=O)[C@H](CCc2ccc(C(F)(F)F)c(F)c2)NC(=O)CN(C)C(=O)[C@H](C2CCCC2)N(C)C(=O)[C@@H]2CCN2C(=O)[C@H](C)N(C)C1=O` [Compound 1099] ([NMeL]I[NMeA][Aze][NMeGly(cPent)][Sar][hPhe(3-F,4-CF3)]P[Ac5c][NMeGly(cPent)][NMeD]-Piperidide; lactam N-11), the IC50 was no more than 20 nM.

Take `CC[C@H](C)[C@@H]1NC(=O)[C@H](CC(C)C)N(C)C(=O)C[C@@H](C(=O)N2CCCCC2)N(C)C(=O)[C@H](CC(C)C)NC(=O)C(C)(C)N(C)C(=O)[C@H](Cc2ccccc2OC)NC(=O)[C@H](Cc2cccc(I)c2)NC(=O)CN(C)C(=O)[C@H](Cc2ccc(C)cc2)N(C)C(=O)CN(C)C(=O)CN(C)C1=O` [Compound 1100] ([NMeL]I[Sar][Sar][NMePhe(4-Me)][Sar][Phe(3-I)][Phe(2-OMe)][NMeAib]L[NMeD]-Piperidide; lactam N-11): the IC50 was greater than 500 nM.

Turning to `CC[C@H](C)[C@@H]1NC(=O)[C@H](CC(C)C)N(C)C(=O)C[C@@H](C(=O)N2CCCCC2)N(C)C(=O)[C@H]([C@@H](C)OC)N(C)C(=O)C2(CCCC2)NC(=O)[C@@H]2CCCN2C(=O)[C@H](CCc2ccc(C(F)(F)F)c(Cl)c2)NC(=O)CN(C)C(=O)[C@H](CC2CCCCC2)N(C)C(=O)CN(C)C(=O)CN(C)C1=O` [Compound 1101] ([NMeL]I[Sar][Sar][NMeCha][Sar][hPhe(3-Cl-4-CF3)]P[Ac5c][NMeT](Me)[NMeD]-Piperidide; lactam N-11), the IC50 was greater than 500 nM.

For the compound `CC[C@H](C)[C@@H]1NC(=O)[C@H](C)N(C)C(=O)C[C@@H](C(=O)N2CCCCC2)N(C)C(=O)[C@H](C(C)C)N(C)C(=O)C2(CCCC2)NC(=O)[C@@H]2CCCN2C(=O)[C@H](CCc2ccc(C(F)(F)F)c(Cl)c2)NC(=O)[C@@H](C)N(C)C(=O)[C@H](CC2CCCCC2)N(C)C(=O)[C@@H]2CCN2C(=O)[C@H](C)N(C)C1=O` [Compound 1103] ([NMeA]I[NMeA][Aze][NMeCha][dNMeA][hPhe(3-Cl-4-CF3)]P[Ac5c][NMeV][NMeD]-Piperidide; lactam N-11), the IC50 is greater than 500 nM.

As for `CC[C@H](C)[C@@H]1NC(=O)[C@H](CC(C)C)N(C)C(=O)C[C@@H](C(=O)N2CCCCC2)N(C)C(=O)[C@H](C(C)C)NC(=O)C2(CCCC2)NC(=O)[C@@H]2CCCN2C(=O)[C@H](CCc2ccc(C(F)(F)F)c(Cl)c2)NC(=O)CN(C)C(=O)[C@H](CC2CCCCC2)N(C)C(=O)[C@@H]2CCN2C(=O)[C@H](C)N(C)C1=O` [Compound 1106] ([NMeL]I[NMeA][Aze][NMeCha][Sar][hPhe(3-Cl-4-CF3)]P[Ac5c]V[NMeD]-Piperidide; lactam N-11), the IC50 was greater than 500 nM.

On to `CC[C@H](C)[C@@H]1NC(=O)[C@@H]2CCCCN2C(=O)C[C@@H](C)NC(=O)[C@H](C(C)C)N(C)C(=O)[C@H](Cc2ccccc2)N(C)C(=O)[C@H](CC(C)C)N(C)C(=O)[C@H](CCc2ccc(C(F)(F)F)cc2)NC(=O)CN(C)C(=O)[C@H](Cc2ccc(Cl)cc2)N(C)C(=O)CN(C)C(=O)CN(C)C1=O` [Compound 1110] (cyclo(I[Sar][Sar][NMePhe(4-Cl)][Sar][hPhe(4-CF3)][NMeL][NMeF][NMeV][d(β3hA)][Pip])), for which the IC50 is greater than 500 nM.

As for `CC[C@H](C)[C@@H]1NC(=O)[C@H](CC(C)C)N(C)C(=O)C[C@@H](C)NC(=O)[C@H](C(C)C)N(C)C(=O)C2(CC2)NC(=O)[C@@H]2CCCN2C(=O)[C@H](CCc2ccc(C(F)(F)F)c(Cl)c2)NC(=O)CN(C)C(=O)[C@H](CC2CCCCC2)N(C)C(=O)CN(C)C(=O)CN(C)C1=O` [Compound 1111] (cyclo([Ac3c][NMeV][d(β3hA)][NMeL]I[Sar][Sar][NMeCha][Sar][hPhe(3-Cl-4-CF3)]P)), the IC50 was greater than 500 nM.

Turning to `CC[C@H](C)[C@@H]1NC(=O)[C@H](C)N(C)C(=O)C[C@@H](C(=O)N2CCCCC2)N(C)C(=O)[C@H](C(C)C)N(C)C(=O)C2(CCCC2)NC(=O)[C@@H]2CCCN2C(=O)[C@H](CCc2ccc(C(F)(F)F)c(Cl)c2)NC(=O)CN(C)C(=O)[C@H](CC2CCCCC2)N(C)C(=O)[C@@H]2CCCN2C(=O)CN(C)C1=O` [Compound 1121] ([NMeA]I[Sar]P[NMeCha][Sar][hPhe(3-Cl-4-CF3)]P[Ac5c][NMeV][NMeD]-Piperidide; lactam N-11), the IC50 is greater than 500 nM.

For `CC[C@H](C)[C@@H]1NC(=O)[C@H](CC(C)C)N(C)C(=O)C[C@@H](C(=O)N2CCCCC2)N(C)C(=O)[C@H](CC(C)C)NC(=O)C(C)(C)N(C)C(=O)[C@H](Cc2ccccc2OC(F)(F)F)NC(=O)[C@H](Cc2cccc(I)c2)NC(=O)CN(C)C(=O)[C@H](Cc2ccc(C)cc2)N(C)C(=O)[C@@H]2CCN2C(=O)[C@H](C)N(C)C1=O` [Compound 1129] ([NMeL]I[NMeA][Aze][NMePhe(4-Me)][Sar][Phe(3-I)][Phe(2-OCF3)][NMeAib]L[NMeD]-Piperidide; lactam N-11), the IC50 is greater than 500 nM.

For the compound `CC(C)=CC[C@@H]1NC(=O)[C@H](CC(C)C)N(C)C(=O)C[C@@H](C(=O)N2CCCCC2)N(C)C(=O)[C@H](C2CCCCC2)N(C)C(=O)C2(CCCC2)NC(=O)[C@@H]2CCCN2C(=O)[C@H](CCc2ccc(C(F)(F)F)c(Cl)c2)NC(=O)CN(C)C(=O)[C@H](CC2CCCCC2)N(C)C(=O)CN(C)C(=O)CN(C)C1=O` [Compound 1134] ([NMeL][X26][Sar][Sar][NMeCha][Sar][hPhe(3-Cl-4-CF3)]P[Ac5c][NMeChg][NMeD]-Piperidide; lactam N-11), the IC50 was greater than 500 nM.

Take `CC[C@H](C)[C@@H]1NC(=O)[C@H](CC(C)C)N(C)C(=O)C[C@@H](C(=O)N(C)C)N(C)C(=O)[C@H]([C@@H](C)CC)N(C)C(=O)[C@H](C)NC(=O)[C@H](CCN2CCCC(F)(F)C2)N(C)C(=O)[C@H](CCc2ccc(C(F)(F)F)c(Cl)c2)NC(=O)CN(C)C(=O)[C@H](Cc2ccc(C)cc2)N(C)C(=O)[C@@H]2CCN2C(=O)[C@H](C)N(C)C1=O` [Compound 1135] ([NMeL]I[NMeA][Aze][NMePhe(4-Me)][Sar][hPhe(3-Cl-4-CF3)][NMeAbu(3,3-F2-piperidino)]A[NMeI][NMeD]-NMe2; lactam N-11): the IC50 is greater than 500 nM.

On to `CC[C@H](C)[C@@H]1NC(=O)[C@H](CC(C)C)N(C)C(=O)C[C@@H](C(=O)N2CCCCC2)N(C)C(=O)[C@H](C2CCCCC2)N(C)C(=O)[C@@H](C(C)C)NC(=O)[C@@H]2CCCN2C(=O)[C@H](CCc2ccc(C(F)(F)F)c(Cl)c2)NC(=O)CN(C)C(=O)[C@H](CC2CCCCC2)N(C)C(=O)CN(C)C(=O)CN(C)C1=O` [Compound 1138] ([NMeL]I[Sar][Sar][NMeCha][Sar][hPhe(3-Cl-4-CF3)]P[dV][NMeChg][NMeD]-Piperidide; lactam N-11), for which the IC50 is greater than 500 nM.

The record behind these values is patent publication US20240148821A1, “PHARMACEUTICAL USE OF CYCLIC PEPTIDE COMPOUND” (CHUGAI SEIYAKU KABUSHIKI KAISHA, priority 2021, published 2024).
